Reference: article PMC6102129, “Epigallocatechin-3-gallate remodels apolipoprotein A-I amyloid fibrils into soluble oligomers in the presence of heparin” (The Journal of Biological Chemistry, 2018)

Target: T1, monomeric apoA-I (Homo sapiens, UniProt P02647)
T1 construct: gene APOA1; mature apoA-I residues 3-243 from E. coli BL21(DE3), His tag removed by formic acid at Asp2-Pro3; soluble, lipid-free, monomeric, pH 7
Assay: WaterLOGSY NMR
Assay type: binding
Conditions: 36 μM apoA-I, phosphate buffer pH 7, no heparin

T1 sequence (P02647 27-267): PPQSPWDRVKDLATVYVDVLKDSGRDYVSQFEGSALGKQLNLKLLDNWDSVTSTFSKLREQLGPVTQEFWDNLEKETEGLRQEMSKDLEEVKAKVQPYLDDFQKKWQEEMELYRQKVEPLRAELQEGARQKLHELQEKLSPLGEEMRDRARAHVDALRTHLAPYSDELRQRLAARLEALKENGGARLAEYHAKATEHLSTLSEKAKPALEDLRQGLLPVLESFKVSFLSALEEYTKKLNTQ

O=C(O[C@@H]1Cc2c(O)cc(O)cc2O[C@@H]1c1cc(O)c(O)c(O)c1)c1cc(O)c(O)c(O)c1 [compound 5, EGCG]
WaterLOGSY NMR: peaks from EGCG broaden and take the opposite sign to the TSP peak
